Results on five molecules are retold here after patent publication US5576341A, “2-[[2-(N-isobutyl-N-methyl)amino]benzylsulfinyl]-benzimidazole as antimicrobial agent” (Nippon Chemiphar Co., Ltd., priority 1993, dated 1996).

Structures are written as SMILES. ≈ marks a conversion by molar mass, not a printed value.

Assay [1] relates to Helicobacter pylori ATCC 43526. In words: MIC by agar plate dilution method (Experimental 2), ATCC 43526. As to conditions: ATCC43526, 144 h.
In assay [2] the test system is Helicobacter pylori Wild 1. Description: MIC by agar plate dilution method (Experimental 2), Wild 1. As to conditions: WILD1, 144 h.
The test system of assay [3] is Helicobacter pylori. Description: microbe, parasite or virus in culture. As to conditions: 144 h, read-out: MIC (minimal inhibitory concentration).
Assay [4] has as its system Helicobacter pylori ATCC 43579. In words: MIC by agar plate dilution method (Experimental 2), ATCC 43579. As to conditions: ATCC43579, 144 h.
The subject of assay [5] is Helicobacter pylori NCTC 11637. Description: MIC by agar plate dilution method (Experimental 2), NCTC 11637. As to conditions: NCTC11637, 144 h.
The test system of assay [6] is Helicobacter pylori Wild 1. Description: MIC by agar plate dilution method (Experimental 2), Wild 1 (first line). As to conditions: WILD1, 144 h.
Assay [7] relates to Helicobacter pylori ATCC 43629. In words: MIC by agar plate dilution method (Experimental 2), ATCC 43629. As to conditions: ATCC43629, 144 h.
Assay [8] concerns Helicobacter pylori. As to conditions: Antimicrobial Agents and Chemotherapy, March 1991, p.490-496; cited from earlier work.

As to `CC(C)CN(C)c1ccccc1C[S+]([O-])c1nc2ccccc2[nH]1` (stereo not drawn) [Compound (1), 2-[[2-(N-isobutyl-N-methyl)amino]benzylsulfinyl]benzimidazole], the MIC was 25 µg/mL (≈ 73.2 µM) in assay [1]; 50 µg/mL (≈ 146 µM) in assay [2]; 12.5 µg/mL (≈ 36.6 µM) in the assay on Helicobacter pylori [3]; 25 µg/mL (≈ 73.2 µM) in assay [4]; 25 µg/mL (≈ 73.2 µM) in assay [5]; 50 µg/mL (≈ 146 µM) in assay [6]. In assay [7], the MIC was determined as 12.5 µg/mL (≈ 36.6 µM).
Take `CN/C(=N/CCSCc1nc[nH]c1C)NC#N` [Cimetidine]: the MIC in assay [1], in assay [4] and in assay [7] was 800 µg/mL (≈ 3170 µM) throughout.
Turning to `Cc1c(OCC(F)(F)F)ccnc1C[S+]([O-])c1nc2ccccc2[nH]1` (stereo not drawn) [lansoprazole], in the assay on Helicobacter pylori [8], the “antimicrobial activity against Helicobacter pylori (in words)” value is given as “have antimicrobial activity against Helicobacter pylori”.
As for `COc1ccc2[nH]c([S+]([O-])Cc3ncc(C)c(OC)c3C)nc2c1` (stereo not drawn) [Omeprazole], the MIC in assay [1] is 12.5 µg/mL (≈ 36.2 µM); in assay [2], 50 µg/mL (≈ 145 µM); in assay [4], 12.5 µg/mL (≈ 36.2 µM); in assay [5], 50 µg/mL (≈ 145 µM); in assay [6], 50 µg/mL (≈ 145 µM); in assay [7], 12.5 µg/mL (≈ 36.2 µM). Further, in the assay on Helicobacter pylori [8], the “antimicrobial activity against Helicobacter pylori (in words)” value is “have antimicrobial activity against Helicobacter pylori”.
As for `NC(N)=Nc1nc(CSCCC(N)=NS(N)(=O)=O)cs1` [Famotidine], the MIC in assay [1] was more than 800 µg/mL; in assay [4], 800 µg/mL (≈ 2370 µM); in assay [7], 800 µg/mL (≈ 2370 µM).
